Usually IC50 stands for the point on the concentration scale where inhibition reaches its midpoint.

Structures are written as SMILES.

One experiment addresses T1, His-AKT (Full Length) (Homo sapiens, UniProt P31749).
T1 construct: His-AKT (Full Length); His; purchased Invitrogen P2999
The experiment is described as follows: AKT enzyme assay. It counts as biochemical. As to conditions: 160 uM ATP, 90 min at 25 C, off-chip mobility shift (Caliper). The procedure:
A TTP Mosquito liquid handling instrument was used to place 125 nl of the appropriate concentration of inhibitor in 100% DMSO (for a dose response curve calculation) into each well of a 384-well plate. To this reaction components were added to a final volume of 12.5 μl: • 0.1 ng/μ1 His-AKT (Full Length), (Invitrogen, Part # P2999, Lot #641228C). • 160 uM ATP (Fluka, 02055) • 1 mM DTT (Sigma, D0632) • 1 mM MgCl2 (Sigma, M1028) • 1 μM substrate peptide (sequence FITC-AHA-GRPRTSSFAEG-NH2), synthesized by Tufts Peptide Synthesis service. • 100 mM HEPES pH 7.5 (Calbiochem, 391338) • 0.015% Brij-35 (Sigma, B4184)
The reaction was incubated for 90 min at 25 C, and then stopped by the addition of 70 μl of Stop buffer (100 mM HEPES pH 7.5, 0.015% Brij-35, 10 mM EDTA (Sigma, E7889)).
The plate was read on a Caliper LC 3000 in an Off-Chip mobility shift assay format, using the following parameters for a 12-sipper chip: screening pressure—2.3 psi, upstream voltage—500, and downstream voltage—3000. These conditions cause unphosphorylated substrate and phosphorylated product peptide to resolve as separate peaks allowing direct measurement of percentage of conversion of substrate to product. The percent conversion was plotted against concentration of inhibitor to produce a sigmoidal dose response curve, from which an IC50 was calculated.

Another experiment deals with T2, P70S6K (T412E mutant) (Homo sapiens, UniProt P23443, T412E).
T2 construct: purchased Millipore
As to the kind of experiment: P70S6K enzyme assay. The class given is biochemical. The note with it: 24 μM ATP, 90 min at 25° C., mobility shift (Caliper). On the procedure: P70S6K inhibitor compounds were diluted and plated in 96 well plates. A reaction mixture including the following components was then added to the compound plate to initiate the enzyme reaction; P70S6K (3 nM, T412E mutant, Millipore) was mixed with 24 μM ATP in an assay buffer containing 100 mM Hepes (pH 7.5), 5 mM MgCl2, 1 mM DTT, 0.015% Brij and 1 μM of the substrate peptide FITC-AHA-AKRRRLSSLRA-OH (derived from the S6 ribosomal protein sequence, FITC=fluorescein isothiocyanate, AHA=6-aminohexanoic acid). The reaction was incubated for 90 min at 25° C., before the addition of 10 mM EDTA to stop the reaction. The proportion of substrate and product (phosphorylated) peptide was analysed on a Caliper Life Sciences Lab Chip 3000, using a pressure of −1.4 psi, and upstream and downstream voltages of −3000 and −700 respectively. Product peaks were resolved before substrate peaks on the resulting chromatograms.

T2 sequence (P23443 whole entry T412E): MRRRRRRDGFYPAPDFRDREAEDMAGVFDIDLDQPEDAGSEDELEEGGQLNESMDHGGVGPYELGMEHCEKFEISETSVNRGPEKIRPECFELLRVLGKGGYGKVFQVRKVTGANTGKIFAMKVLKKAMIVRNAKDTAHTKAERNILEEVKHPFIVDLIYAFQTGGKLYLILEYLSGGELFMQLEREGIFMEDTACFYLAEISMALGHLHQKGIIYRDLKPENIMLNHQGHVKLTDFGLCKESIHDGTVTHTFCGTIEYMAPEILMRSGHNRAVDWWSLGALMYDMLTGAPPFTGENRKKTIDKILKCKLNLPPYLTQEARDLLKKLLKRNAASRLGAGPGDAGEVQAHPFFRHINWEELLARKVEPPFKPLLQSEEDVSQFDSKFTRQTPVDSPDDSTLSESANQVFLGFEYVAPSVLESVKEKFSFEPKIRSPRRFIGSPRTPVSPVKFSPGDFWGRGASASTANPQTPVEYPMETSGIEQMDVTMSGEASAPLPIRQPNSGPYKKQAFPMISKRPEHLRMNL
T1 sequence (P31749 whole entry): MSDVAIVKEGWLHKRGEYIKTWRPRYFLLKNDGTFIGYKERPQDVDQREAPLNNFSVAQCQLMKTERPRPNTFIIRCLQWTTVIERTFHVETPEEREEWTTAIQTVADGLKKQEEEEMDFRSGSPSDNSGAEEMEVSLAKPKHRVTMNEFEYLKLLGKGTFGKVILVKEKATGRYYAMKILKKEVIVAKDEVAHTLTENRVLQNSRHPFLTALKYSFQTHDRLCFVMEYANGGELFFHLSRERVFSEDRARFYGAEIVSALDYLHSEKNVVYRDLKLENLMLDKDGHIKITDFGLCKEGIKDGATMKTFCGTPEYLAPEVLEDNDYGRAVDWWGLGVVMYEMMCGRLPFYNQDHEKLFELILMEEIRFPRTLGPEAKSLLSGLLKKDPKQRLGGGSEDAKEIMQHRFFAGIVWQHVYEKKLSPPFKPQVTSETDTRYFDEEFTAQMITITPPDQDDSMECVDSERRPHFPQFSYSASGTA

With `CC(C)c1cc(-c2cn(CCN3CCC3)c(C3CCN(c4ncnc(N)c4C4CC4)CC3)n2)ccn1` [Compound 17, 6-{4-[1-(2-Azetidin-1-yl-ethyl)-4-(2-isopropyl-pyridin-4-yl)-1H-imidazol-2-yl]-piperidin-1-yl}-5-cyclopropyl-pyrimidin-4-ylamine], the IC50 on His-AKT (Full Length) and at P70S6K (T412E mutant) was 3 to 15 nM each time.
As to `Cc1cc(-c2cn(CC3CN(C)C3)c(C3CCN(c4ncnc(N)c4Cl)CC3)n2)ccc1F` [Compound 6, 5-Chloro-6-{4-[4-(4-fluoro-3-methyl-phenyl)-1-(1-methyl-azetidin-3-ylmethyl)-1H-imidazol-2-yl]-piperidin-1-yl}-pyrimidin-4-ylamine], the half-maximal inhibitory concentration (IC50) on His-AKT (Full Length) and on P70S6K (T412E mutant) was 3 to 15 nM in each case.
Consider `Cc1cc(-c2cn(CCN3CCC3)c(C3CCN(c4ncnc(N)c4-c4cccnc4)CC3)n2)ccc1F` [Compound 9, 6-{4-[1-(2-Azetidin-1-yl-ethyl)-4-(4-fluoro-3-methyl-phenyl)-1H-imidazol-2-yl]-piperidin-1-yl}-5-pyridin-3-yl-pyrimidin-4-ylamine], for which the IC50 on His-AKT (Full Length) and at P70S6K (T412E mutant) was 3 to 15 nM throughout.
As for `CN(C)CCn1cc(-c2ccnc(C(F)(F)F)c2)nc1C1CCN(c2ncnc(N)c2Br)CC1` [Compound 25], the IC50 on His-AKT (Full Length) and on P70S6K (T412E mutant) was below 3 nM in each case.
With `CCNCCn1cc(-c2ccc(F)c(C(F)(F)F)c2)nc1C1CCN(c2ncnc(N)c2C(C)C)CC1` [Compound 31, 6-{4-[1-(2-Ethylamino-ethyl)-4-(4-fluoro-3-trifluoromethyl-phenyl)-1H-imidazol-2-yl]-piperidin-1-yl}-5-isopropyl-pyrimidin-4-ylamine], the IC50 on His-AKT (Full Length) and on P70S6K (T412E mutant) was 3 to 15 nM throughout.
In the case of `CN(C)CCn1cc(-c2ccnc(C(F)(F)F)c2)nc1C1CCN(c2ncnc(N)c2C#N)CC1` [Compound 29], the IC50 on His-AKT (Full Length) is 3 to 15 nM; on P70S6K (T412E mutant), below 3 nM.
The corresponding values for `CCOc1c(N)ncnc1N1CCC(c2nc(-c3ccc(F)c(Cl)c3)cn2CCN(C)C)CC1` [Compound 20] are 3 to 15 nM and below 3 nM.
For `CCc1c(N)ncnc1N1CCC(c2nc(-c3ccc(F)c(C)c3)cn2CCN2CCC2)CC1` [Compound 1, 6-{4-[1-(2-Azetidin-1-yl-ethyl)-4-(4-fluoro-3-methyl-phenyl)-1H-imidazol-2-yl]-piperidin-1-yl}-5-ethyl-pyrimidin-4-ylamine], in that order: 3 to 15 nM and below 3 nM.
The corresponding values for `CC(C)c1cc(-c2cn(CCN3CCC3)c(C3CCN(c4ncnc(N)c4-c4cccnc4)CC3)n2)ccn1` [Compound 19, 6-{4-[1-(2-Azetidin-1-yl-ethyl)-4-(2-isopropyl-pyridin-4-yl)-1H-imidazol-2-yl]-piperidin-1-yl}-5-Pyridin-3-yl-pyrimidin-4-ylamine] are above 15 nM and 3 to 15 nM.
